Converted amounts (≈) assume the structure as drawn.
Experiments:
Assay in all cases: ≥ marks a high value that may be exact or a test limit, other limits are often not marked, values filed in µg/mL are converted to µM
[1] = tested on: Staphylococcus aureus ATCC 29213
[2] = tested on: Bacillus cereus ATCC 10876
[3] = tested on: Escherichia coli ATCC 25922
[4] = tested on: Salmonella enterica subsp. enterica serovar Typhimurium ATCC 14028
[5] = tested on: Streptococcus agalactiae ATCC 27956
[6] = tested on: Staphylococcus aureus ATCC 6538
[7] = tested on: Enterococcus faecalis ATCC 29212
[8] = tested on: Pseudomonas aeruginosa ATCC 27853
Escherichia coli = tested on: Escherichia coli
[9] = tested on: Streptococcus equi subsp. zooepidemicus ATCC 43079
[10] = tested on: Streptococcus dysgalactiae subsp. dysgalactiae ATCC 27957
[11] = tested on: Streptococcus iniae KCTC 3657
Klebsiella pneumoniae = tested on: Klebsiella pneumoniae
Vibrio parahaemolyticus = tested on: Vibrio parahaemolyticus
Vibrio fluvialis = tested on: Vibrio fluvialis
Staphylococcus aureus = tested on: Staphylococcus aureus
Streptococcus pyogenes = tested on: Streptococcus pyogenes
Aeromonas hydrophila = tested on: Aeromonas hydrophila
Vibrio alginolyticus = tested on: Vibrio alginolyticus
Listeria monocytogenes = tested on: Listeria monocytogenes
[12] = tested on: Staphylococcus aureus BNCC 186335
[13] = tested on: Staphylococcus aureus ATCC 25923
[14] = tested on: Pseudomonas aeruginosa BNCC 125486
[15] = tested on: Escherichia coli BNCC 133264
[16] = tested on: Acinetobacter baumannii KCTC 2508
[17] = tested on: Klebsiella pneumoniae KCTC 2208
Staphylococcus aureus MR = tested on: Staphylococcus aureus MR
[18] = tested on: Bacillus amyloliquefaciens ATCC 23842
[19] = tested on: Enterococcus faecalis 1F-1
Escherichia coli W3110 = tested on: Escherichia coli W3110
Enterococcus faecalis A4 = tested on: Enterococcus faecalis A4
Escherichia coli NDM = tested on: Escherichia coli NDM
[20] = tested on: Acinetobacter baumannii AB5075
[21] = tested on: Enterococcus faecium 5F-10
Enterococcus faecium = tested on: Enterococcus faecium
[22] = tested on: Pseudomonas aeruginosa PA14
[23] = tested on: Staphylococcus aureus 215
[24] = tested on: Bacillus licheniformis ATCC 14580
[25] = tested on: Bacillus cereus ATCC 14579
[26] = tested on: Bacillus subtilis ATCC 6051
[27] = tested on: Enterococcus faecalis ATCC 4028
[28] = tested on: Candida albicans ATCC 90028
Candida krusei ATCC 6258 = tested on: Candida krusei ATCC 6258
[29] = tested on: Candida glabrata ATCC 90030
[30] = tested on: Staphylococcus epidermidis ATCC 12228
[31] = tested on: Enterobacter cloacae ATCC 13047

CC[C@H](C)[C@H](NC(=O)[C@H](CCCN=C(N)N)NC(=O)[C@H](Cc1c[nH]c2ccccc12)NC(=O)CNC(=O)[C@H](Cc1ccc(O)cc1)NC(=O)[C@H](CCCN=C(N)N)NC(=O)[C@H](CCCN=C(N)N)NC(=O)[C@H](C)NC(=O)[C@H](Cc1ccccc1)NC(=O)[C@H](CCCN=C(N)N)NC(=O)CNC(=O)[C@H](C)NC(=O)CNC(=O)[C@H](CCCN=C(N)N)NC(=O)[C@@H](NC(=O)[C@H](Cc1ccccc1)NC(=O)[C@H](CCCN=C(N)N)NC(=O)[C@H](CCCN=C(N)N)NC(=O)[C@H](Cc1c[nH]c2ccccc12)NC(=O)[C@H](CCCN=C(N)N)NC(=O)[C@H](CO)NC(=O)[C@H](CCCN=C(N)N)NC(=O)[C@@H](N)[C@@H](C)O)[C@@H](C)CC)C(=O)N[C@@H](C)C(=O)O [TRSRWRRFIRGAGRFARRYGWRIA]
MIC [1]: > 41.9 µM | MIC [2]: 3.28 µM (≈ 10 µg/mL) | MIC [3]: 0.328 µM (≈ 1 µg/mL) | MIC [4]: 0.164 µM (≈ 0.5 µg/mL) | MIC [5]: 13.1 µM (≈ 40 µg/mL) | MIC [6]: 1.3 µM (≈ 3.97 µg/mL) | MIC [7]: 13.1 µM (≈ 40 µg/mL) | MIC [8]: 0.983 µM (≈ 3 µg/mL) | MIC (Escherichia coli): 1.54 µM (≈ 4.7 µg/mL) | MIC [9]: 6.6 µM (≈ 20.1 µg/mL) | MIC [10]: 13.1 µM (≈ 40 µg/mL) | MIC [11]: 10.5 µM (≈ 32 µg/mL) | MIC (Klebsiella pneumoniae): 0.387 µM (≈ 1.18 µg/mL)

CC[C@H](C)[C@H](NC(=O)[C@H](CCCCN)NC(=O)[C@H](Cc1cnc[nH]1)NC(=O)[C@H](CC(C)C)NC(=O)[C@H](CC(C)C)NC(=O)[C@H](Cc1ccccc1)NC(=O)[C@H](CC(N)=O)NC(=O)[C@@H](N)C(C)C)C(=O)N[C@@H](Cc1ccc(O)cc1)C(=O)NCC(=O)N[C@@H](CC(N)=O)C(=O)N[C@H](C(=O)N[C@@H](CCCN=C(N)N)C(=O)N[C@@H](Cc1ccc(O)cc1)C(=O)N[C@@H](CO)C(=O)O)[C@@H](C)CC [VNFLLHKIYGNIRYS]
MIC (Vibrio parahaemolyticus): 17 µM (≈ 31.2 µg/mL) | MIC (Vibrio fluvialis): ≥ 34 µM | MIC (Escherichia coli): 2.12 µM (≈ 3.9 µg/mL) | MIC (Staphylococcus aureus): 34 µM (≈ 62.5 µg/mL) | MIC (Streptococcus pyogenes): ≥ 34 µM | MIC (Aeromonas hydrophila): 2.12 µM (≈ 3.9 µg/mL) | MIC (Vibrio alginolyticus): 2.12 µM (≈ 3.9 µg/mL)

CC[C@H](C)[C@H](NC(=O)[C@H](CCCCN)NC(=O)[C@H](CC(N)=O)NC(=O)[C@H](CC(C)C)NC(=O)[C@@H](NC(=O)[C@H](CCCCN)NC(=O)[C@@H]1CCCN1)[C@@H](C)CC)C(=O)N[C@@H](CC(C)C)C(=O)NCC(=O)N[C@@H](CCCCN)C(=O)N[C@H](C(=O)N[C@@H](CC(C)C)C(=O)N[C@@H](CCCN=C(N)N)C(=O)N[C@@H](CC(C)C)C(=O)N[C@@H](C)C(=O)N[C@@H](C)C(=O)N[C@@H](C)C(=O)N[C@@H](Cc1ccccc1)C(=O)N[C@@H](CCCCN)C(N)=O)[C@@H](C)CC [PKILNKILGKILRLAAAFK]
MIC [3]: 1.5 µM (≈ 3.16 µg/mL) | MIC (Listeria monocytogenes): 1.9 µM (≈ 4 µg/mL) | MIC [12]: 0.949 µM (≈ 2 µg/mL) | MIC [8]: 1.5 µM (≈ 3.16 µg/mL) | MIC [13]: 3 µM (≈ 6.32 µg/mL) | MIC (Escherichia coli): 1.9 µM (≈ 4 µg/mL) | MIC [14]: 1.9 µM (≈ 4 µg/mL) | MIC [15]: 1.9 µM (≈ 4 µg/mL) | MIC (Klebsiella pneumoniae): 6.25 µM (≈ 13.2 µg/mL)

CC[C@H](C)[C@H](N)C(=O)N[C@@H](C)C(=O)N[C@@H](CCCN=C(N)N)C(=O)N[C@@H](CCCN=C(N)N)C(=O)N[C@@H](C)C(=O)N[C@@H](CC(C)C)C(=O)N[C@@H](CCCCN)C(=O)N[C@@H](C)C(=O)N[C@@H](CO)C(=O)N[C@@H](CC(C)C)C(=O)N[C@@H](CCCN=C(N)N)C(=O)N[C@@H](C)C(=O)N[C@@H](CCCN=C(N)N)C(=O)N[C@@H](Cc1cnc[nH]1)C(=O)N[C@H](C(=O)N[C@H](C(=O)N1CCC[C@H]1C(=O)N[C@@H](CCC(N)=O)C(=O)N[C@@H](CS)C(=O)N[C@@H](CCCCN)C(=O)N[C@@H](CCCCN)C(=O)N[C@@H](Cc1ccccc1)C(=O)NCC(=O)N[C@@H](CCCN=C(N)N)C(=O)N[C@@H](CCCN=C(N)N)C(N)=O)[C@@H](C)CC)[C@@H](C)O [IARRALKASLRARHTIPQCKKFGRR]
MIC [16]: 4 µM (≈ 11.7 µg/mL) | MIC [8]: 4 µM (≈ 11.7 µg/mL) | MIC [17]: 8 µM (≈ 23.5 µg/mL)

CC[C@H](C)[C@H](NC(=O)[C@H](CC(C)C)NC(=O)[C@H](CO)NC(=O)[C@@H](NC(=O)[C@H](CCC(N)=O)NC(=O)[C@H](Cc1ccc(O)cc1)NC(=O)[C@H](CCCN=C(N)N)NC(=O)[C@H](CCCN=C(N)N)NC(=O)[C@H](CCCN=C(N)N)NC(=O)[C@@H](NC(=O)[C@H](CO)NC(=O)[C@@H](NC(=O)[C@@H](N)[C@@H](C)O)[C@@H](C)O)[C@@H](C)CC)C(C)C)C(=O)N[C@@H](CCCN=C(N)N)C(=O)N[C@@H](CCCN=C(N)N)C(=O)N[C@@H](Cc1cnc[nH]1)C(=O)N[C@@H](CCCN=C(N)N)C(=O)NCC(=O)N[C@@H](CCCCN)C(=O)N[C@@H](CCCN=C(N)N)C(=O)O [TTSIRRRYQVSLIRRHRGKR]
MIC (Staphylococcus aureus MR): 25.2 µM (≈ 64 µg/mL) | MIC [1]: 25.2 µM (≈ 64 µg/mL) | MIC [18]: 25.2 µM (≈ 64 µg/mL) | MIC [19]: 3.15 µM (≈ 8 µg/mL) | MIC (Escherichia coli W3110): 16 µM (≈ 40.6 µg/mL) | MIC (Enterococcus faecalis A4): 3.15 µM (≈ 8 µg/mL) | MIC (Escherichia coli NDM): ≥ 32 µM | MIC [20]: 1 µM (≈ 2.54 µg/mL) | MIC [21]: 1.57 µM (≈ 4 µg/mL) | MIC (Enterococcus faecium): 3.15 µM (≈ 8 µg/mL) | MIC [22]: 16 µM (≈ 40.6 µg/mL) | MIC [23]: 12.6 µM (≈ 32 µg/mL) | MIC [24]: 25.2 µM (≈ 64 µg/mL) | MIC (Staphylococcus aureus): 6.3 µM (≈ 16 µg/mL) | MIC [25]: 25.2 µM (≈ 64 µg/mL) | MIC [26]: 25.2 µM (≈ 64 µg/mL)

CC[C@H](C)[C@H](NC(=O)[C@H](CC(C)C)NC(=O)CNC(=O)[C@H](CCCCN)NC(=O)[C@@H](NC(=O)[C@H](CC(C)C)NC(=O)[C@H](CCCCN)NC(=O)[C@@H]1CCCN1C(=O)[C@@H](NC(=O)[C@H](CC(C)C)NC(=O)[C@H](CCCCN)NC(=O)[C@H](Cc1ccccc1)NC(=O)[C@@H](N)Cc1ccccc1)[C@@H](C)CC)C(C)C)C(=O)N[C@@H](CO)C(=O)N[C@@H](C)C(=O)N[C@@H](Cc1ccccc1)C(=O)N[C@@H](CCCCN)C(N)=O [FFKLIPKLVKGLISAFK]
MIC [1]: 2.34 µM (≈ 4.56 µg/mL) | MIC [27]: 1.17 µM (≈ 2.28 µg/mL) | MIC [3]: 2.34 µM (≈ 4.56 µg/mL) | MIC [28]: 4.69 µM (≈ 9.14 µg/mL) | MIC (Candida krusei ATCC 6258): 9.38 µM (≈ 18.3 µg/mL) | MIC [8]: 1.17 µM (≈ 2.28 µg/mL) | MIC [29]: 9.38 µM (≈ 18.3 µg/mL) | MIC [30]: 9.38 µM (≈ 18.3 µg/mL) | MIC [31]: 9.38 µM (≈ 18.3 µg/mL)
